Consider 26 molecules from ChEMBL document CHEMBL4765264, “Design, synthesis and biological evaluation of novel 2-(5-aryl-1H-imidazol-1-yl) derivatives as potential inhibitors of the HIV-1 Vpu and host BST-2 protein interaction” (Eur J Med Chem, 2020).

The structures appear in SMILES notation. pEC50, pIC50: −log10 of the molar value.

A short description of series [1]: Inhibition of recombinant HIV1 Viral Protein U expressed in Escherichia coli BL21(DE3) cells/BST-2 (unknown origin) interaction at 100 uM preincubated for 30 mins with viral protein U followed by further incubation with BST-2 for 1 hr by sandwich ELISA relative to control. The settings on record: time 90.0 min. For orientation: ELISA stands for enzyme-linked immunosorbent assay.

Series [2] in a line: Inhibition of recombinant biotinylated HIV1 Viral Protein U expressed in Escherichia coli BL21(DE3)cells/recombinant GST-tagged BST-2 (unknown origin) interaction at 100 uM preincubated for 30 mins with viral protein U followed by further incubation with BST-2 for 1 hr by Alphascreen assay relative to control. The settings on record: time 90.0 min. On the technique in general: Bead proximity is the source of the signal in Alpha formats.

Series [3] is described as follows: Inhibition of recombinant biotinylated HIV1 Viral Protein U expressed in Escherichia coli BL21(DE3) cells/recombinant GST-tagged BST-2 (unknown origin) interaction preincubated for 30 mins with viral protein U followed by further incubation with BST-2 for 1 hr by Alphascreen assay.
Series [4] in a line: Cytotoxicity against human MT4 cells assessed as inhibition of cell viability incubated for 72 hrs by MTS assay. It is filed as cell-based. For orientation: Tetrazolium assays rely on reduction of a dye to a coloured formazan, in cell work by metabolically active cells.
Series [5] has as its system Human immunodeficiency virus 1. The series is described as follows: Antiviral activity against HIV1 LAV infected in human MT4 cells assessed as reduction in viral replication by measuring reduction in p24 expression incubated for 72 hrs by ELISA. It is filed as functional, organism-based. The conditions noted are these: Human immunodeficiency virus 1, LAV, MT4, 72 h.

Series [6] is described as follows: Selectivity index, ratio of CC50 for human MT4 cells to EC50 for antiviral activity against HIV1 LAV infected in human MT4 cells. The settings on record: MT4 cells (CC50) and HIV1 LAV infected MT4 cells (EC50). The format is toxicity, cell-based.
A short description of series [7]: Aqueous solubility of the compound in phosphate buffer saline at 100 uM at wavelength of 250 nm incubated for overnight under shaking condition by filtration assay based UV-visible spectroscopy. The format is physicochemical.
Series [8] is described as follows: Aqueous solubility of the compound in phosphate buffer saline at 200 uM at wavelength of 250 nm incubated for overnight under shaking condition by filtration assay based UV-visible spectroscopy. It is filed as physicochemical.
For series [9], the system named is Human immunodeficiency virus 1. The series is described as follows: Antiviral activity against HIV1 infected in PBMC assessed as reduction in viral replication by measuring reduction in p24 production by ELISA. The format is functional, organism-based. The conditions noted are these: Human immunodeficiency virus 1, PBMC.

Broadly, the inhibition is the share of the control response that was lost under treatment. Take `CCOC(=O)Cn1cncc1-c1ccc(C(C)(C)C)cc1`: the inhibition in series [1] was determined as 17%.
The same measure, in the same setting: for `NNC(=O)Cn1cncc1-c1ccccc1` the value was 39%.
As for `CCOC(=O)[C@H](C)n1cncc1-c1ccccc1`, in [1], the inhibition was 22%.
The same measure, in the same setting: for `COc1cccc(-c2cncn2CC(=O)O)c1` the value was 30%.
On the same count and under the same terms, for `O=C(O)Cn1cncc1-c1ccc2c(c1)OCO2` the value was 9%.
In general, pIC50 refers to the IC50 on a negative log10 scale, so that one unit is a factor of ten. Usually CC50 stands for the concentration giving 50% cytotoxicity. One may read the pEC50 as the EC50 on a negative log10 scale, so that one unit is a factor of ten. One may read the solubility as how much of the substance goes into solution per volume. Read a high solubility as a readily soluble substance. Regarding `CCOC(=O)Cn1cncc1-c1ccccc1`, the inhibition was 83% in series [2] and 82% in [1]. Further, the pIC50 in series [3] is 4.94. In series [4], the CC50 at 72 h was 184 µM. Also, in series [5], the pEC50 was 5.20. In addition, the selectivity ratio in [6] was 29. This molecule also registered a solubility at 100 µM in series [7] of at least 100 µM. Besides, the solubility at 200 µM in [8] is at least 200 µM.
Consider `COc1cccc(-c2cncn2CC(=O)NN)c1`, for which the inhibition came out at 68% in series [2] and 69% in series [1]. In addition, the pIC50 in [3] is 4.75. In [4], the CC50 at 72 h was determined as 160 µM. The pEC50 in series [5] was 3.80. Moreover, the selectivity ratio in [6] was found to be 1. This molecule returned a solubility at 100 µM in series [7] of at least 100 µM. Besides, in series [8], the solubility at 200 µM is at least 200 µM.
For `CCOC(=O)[C@H](C)n1cncc1-c1ccc(F)cc1`, the inhibition was 64% in series [2] and 63% in series [1].
As for `CCOC(=O)Cn1cncc1-c1ccc2c(c1)OCO2`, the inhibition in series [1] amounted to 33%.
Regarding `COc1ccc(-c2cncn2CC(=O)NN)cc1O`, the results for the inhibition in series [2] and in series [1] were 60% and 72%, respectively.
`NNC(=O)Cn1cncc1-c1ccc(F)cc1`: in series [1], the inhibition was determined as 48%.
For `CC(C)(C)c1ccc(-c2cncn2CC(=O)NN)cc1`, the inhibition in series [1] was found to be 45%.
Still for that read-out and setting: for `O=c1cnn([C@@H]2O[C@H](CO)[C@@H](O)[C@H]2O)c(=S)[nH]1` the value was 54%; for `NNC(=O)Cn1cncc1-c1ccc2c(c1)OCO2`, 22%.
Same read-out and setting: for `CCOC(=O)[C@H](C)n1cncc1-c1ccc(OC)c(OC)c1` the value was 20%.
For `Cc1nnc(C(=O)NC(C)(C)c2nc(C(=O)NCc3ccc(F)cc3)c(O)c(=O)n2C)o1` [RALTEGRAVIR], the pEC50 in [5] is 8.10; in [9], at least 8.10.
As for `COc1ccc(-c2cncn2CC(=O)O)cc1OC`, in [1], the inhibition stood at 25%.
On the same count and under the same terms, for `CC(C)(C)c1ccc(-c2cncn2CC(=O)O)cc1` the value was 2%.
Turning to `CCOC(=O)Cn1cncc1-c1cccc(OC)c1`, the results for the inhibition in series [2] and in [1] were 56% and 51%, respectively.
On to `COc1ccc(-c2cncn2CC(=O)NN)cc1OC`, for which, in [1], the inhibition was determined as 28%.
The same measure, in the same setting: for `CCOC(=O)Cn1cncc1-c1ccc(OC)c(O)c1` the value was 30%.
Regarding `CCOC(=O)Cn1cncc1-c1ccc(OC)c(OC)c1`, the figures for the inhibition in series [2] and in [1] were 61% and 58%, respectively.
Regarding `O=C(O)Cn1cncc1-c1ccc(F)cc1`, in [1], the inhibition is 11%.
As for `O=C(O)Cn1cncc1-c1ccccc1`, in series [1], the inhibition was 0%.
`COc1ccc(-c2cncn2CC(=O)O)cc1O`: in series [1], the inhibition is 0%.
As for `CCOC(=O)Cn1cncc1-c1ccc(F)cc1`, the figures for the inhibition in [2] and in series [1] were 55% and 54%, respectively.
